From patent US20100267561A1, “HERBICIDAL PYRIDAZINONE DERIVATIVES” (priority 2007, published 2010)

Key:
Test in all cases: Test B pre-/postemergence plant response
Type in all cases: in vivo
[1] = tested on: Russian thistle (Salsola iberica); conditions: Preemergence; for Russian Thistle plant response rating: scale 0 to 100
Source text: (§1) Seeds of plant species selected from blackgrass (Alopecurus myosuroides), downy bromegrass (Bromus tectorum), green foxtail (Setaria viridis), Italian ryegrass (Lolium multiflorum), wheat (Triticum aestivum), wild oat (Avena fatua), catchweed bedstraw (Galium aparine), bermudagrass (Cynodon dactylon), surinam grass (Brachiaria decumbens), cocklebur (Xanthium strumarium), corn (Zea mays), large crabgrass (Digitaria sanguinalis), woolly cupgrass (Eriochloa villosa), giant foxtail (Setaria faberii), goosegrass (Eleusine indica), johnsongrass (Sorghum halepense), kochia (Kochia scoparia), lambsquarters (Chenopodium album), morningglory (Ipomoea coccinea), eastern black (E.B.) nightshade (Solanum ptycanthum), yellow nutsedge (Cyperus esculentus), pigweed (Amaranthus retroflexus), common ragweed (Ambrosia elation), Russian thistle (Salsola iberica), soybean (Glycine max), common (oilseed) sunflower (Helianthus annuus), and velvetleaf (Abutilon theophrasti) were planted and treated preemergence with test chemicals formulated in a non-phytotoxic solvent mixture which included a surfactant.
(§2) At the same time, plants selected from these crop and weed species and also winter barley (Hordeum vulgare), canarygrass (Phalaris minor), chickweed (Stellaria media) and windgrass (Apera spica-venti) were treated with postemergence applications of some of the test chemicals formulated in the same manner. Plants ranged in height from 2 to 18 cm (1- to 4-leaf stage) for postemergence treatments.
(§3) Plant species in the flooded paddy test consisted of rice (Oryza sativa), umbrella sedge (Cyperus difformis), ducksalad (Heteranthera limosa) and barnyardgrass (Echinochloa crus-galli) grown to the 2-leaf stage for testing. At time of treatment, test pots were flooded to 3 cm above the soil surface, treated by application of test compounds directly to the paddy water, and then maintained at that water depth for the duration of the test. Treated plants and controls were maintained in a greenhouse for 13 to 15 days, after which time all species were compared to controls and visually evaluated. Plant response ratings, summarized in Table B, are based on a scale of 0 to 100 where 0 is no effect and 100 is complete control. A dash (-) response means no test result.

[2] = tested on: common (oilseed) sunflower (Helianthus annuus); conditions: Preemergence; for Sunflower plant response rating: scale 0 to 100
Source text: as §1, §2, §3

[3] = tested on: downy bromegrass (Bromus tectorum); conditions: for Bromegrass, Downy plant response rating: 8 g ai/ha
Source text: as §1, §2, §3

[4] = tested on: eastern black (E.B.) nightshade (Solanum ptycanthum); conditions: Preemergence; for Nightshade, E. B. plant response rating: scale 0 to 100
Source text: as §1, §2, §3

[5] = tested on: giant foxtail (Setaria faberii)
Source text: as §1, §2, §3

[6] = tested on: goosegrass (Eleusine indica)
Source text: as §1, §2, §3

[7] = tested on: morningglory (Ipomoea coccinea)
Source text: as §1, §2, §3

[8] = tested on: soybean (Glycine max)
Source text: as §1, §2, §3

[9] = tested on: surinam grass (Brachiaria decumbens)
Source text: as §1, §2, §3

[10] = tested on: wheat (Triticum aestivum)
Source text: as §1, §2, §3

[11] = 31 g ai/ha, scale 0 to 100 (0 no effect, 100 complete control)
[12] = 62 g ai/ha, 0 to 100 scale, 0 no effect, 100 complete control
[13] = Postemergence, 16 g ai/ha, scale 0 to 100
[14] = Postemergence, 31 g ai/ha, scale 0 to 100
[15] = Postemergence, 62 g ai/ha, scale 0 to 100, 0 no effect, 100 complete control
[16] = Preemergence, 31 g ai/ha, scale 0 to 100 (0 no effect, 100 complete control)
[17] = Preemergence, 62 g ai/ha, 0 to 100 scale, 0 no effect, 100 complete control
[18] = 8 g ai/ha, postemergence, 0-100 scale
[19] = Preemergence, 8 g ai/ha, scale 0 to 100
[20] = Preemergence, 16 g ai/ha, scale 0 to 100
[21] = 16 g ai/ha, postemergence, 0-100 scale

CCc1cc(-c2ccc(Br)cc2)nn1-c1c(O)c(C)nn(C)c1=O [Compound 74]
Plant response rating, Russian Thistle [1, 11]: 0 | Plant response rating, Russian Thistle [1, 12]: 0 | Russian Thistle plant response rating ([1]; 8 g ai/ha): 0 | Russian Thistle plant response rating ([1]; 16 g ai/ha): 0 | Plant response rating, Sunflower [2, 11]: 0 | Plant response rating, Sunflower [2, 12]: 0 | Sunflower plant response rating ([2]; 8 g ai/ha): 0 | Sunflower plant response rating ([2]; 16 g ai/ha): 0 | Bromegrass, Downy plant response rating ([3]; postemergence, 0-100 scale): 10 | Plant response rating, Bromegrass, Downy [3, 13]: 40 | Plant response rating, Bromegrass, Downy [3, 14]: 50 | Plant response rating, Bromegrass, Downy [3, 15]: 60 | Plant response rating, Bromegrass, Downy ([3]; Preemergence, 16 g ai/ha, scale 0 to 100 (0 no effect, 100 complete control)): 85 | Plant response rating, Bromegrass, Downy [3, 16]: 85 | Plant response rating, Bromegrass, Downy [3, 17]: 85 | Bromegrass, Downy plant response rating ([3]; Preemergence, scale 0 to 100): 30 | Plant response rating, Nightshade, E. B. [4, 11]: 0 | Plant response rating, Nightshade, E. B. [4, 12]: 65 | Nightshade, E. B. plant response rating ([4]; 8 g ai/ha): 0 | Nightshade, E. B. plant response rating ([4]; 16 g ai/ha): 0 | Foxtail, Giant plant response rating [5, 18]: 80 | Plant response rating, Foxtail, Giant [5, 13]: 85 | Plant response rating, Foxtail, Giant [5, 14]: 95 | Plant response rating, Foxtail, Giant [5, 15]: 98 | Plant response rating, Foxtail, Giant [5, 16]: 100 | Plant response rating, Foxtail, Giant [5, 17]: 100 | Foxtail, Giant plant response rating [5, 19]: 80 | Foxtail, Giant plant response rating [5, 20]: 98 | Goosegrass plant response rating [6, 18]: 60 | Goosegrass plant response rating [6, 21]: 65 | Plant response rating, Goosegrass [6, 14]: 75 | Plant response rating, Goosegrass [6, 15]: 85 | Plant response rating, Goosegrass [6, 16]: 100 | Plant response rating, Goosegrass [6, 17]: 100 | Goosegrass plant response rating [6, 19]: 95 | Goosegrass plant response rating [6, 20]: 98 | Morningglory plant response rating [7, 18]: 0 | Morningglory plant response rating [7, 21]: 0 | Plant response rating, Morningglory [7, 14]: 0 | Plant response rating, Morningglory [7, 15]: 0 | Plant response rating, Morningglory [7, 16]: 0 | Plant response rating, Morningglory [7, 17]: 0 | Morningglory plant response rating [7, 19]: 0 | Morningglory plant response rating [7, 20]: 0 | Soybean plant response rating [8, 18]: 0 | Soybean plant response rating [8, 21]: 0 | Plant response rating, Soybean [8, 14]: 0 | Plant response rating, Soybean [8, 15]: 0 | Plant response rating, Soybean [8, 16]: 0 | Plant response rating, Soybean [8, 17]: 0 | Soybean plant response rating [8, 19]: 0 | Soybean plant response rating [8, 20]: 0 | Surinam Grass plant response rating [9, 18]: 85 | Surinam Grass plant response rating [9, 21]: 100 | Plant response rating, Surinam Grass [9, 14]: 100 | Plant response rating, Surinam Grass [9, 15]: 100 | Plant response rating, Surinam Grass [9, 16]: 100 | Plant response rating, Surinam Grass [9, 17]: 100 | Surinam Grass plant response rating [9, 19]: 100 | Surinam Grass plant response rating [9, 20]: 100 | Wheat plant response rating [10, 18]: 40 | Wheat plant response rating [10, 21]: 70 | Plant response rating, Wheat [10, 14]: 90 | Plant response rating, Wheat [10, 15]: 95 | Plant response rating, Wheat [10, 16]: 25 | Plant response rating, Wheat [10, 17]: 85 | Wheat plant response rating [10, 20]: 0
